Test results: EP0743938B1, “SUBSTITUTED SPIRO COMPOUNDS FOR THE TREATMENT OF INFLAMMATION” (G.D. SEARLE & CO., priority 1994, dated 1995)

Assays:
Male Sprague-Dawley rats [1] = test: Rat Carrageenan Foot Pad Edema Test; type: in vivo; conditions: po, 3 h, rats dosed orally, 10mg/kg body weight, one hour before carrageenan, foot volume three hours after carrageenan, read-out: RAT PAW EDEMA % Inhibition @ 10mg/kg body weight
Method: Male Sprague-Dawley rats were selected in each group so that the average body weight was as close as possible. Rats were fasted with free access to water for over sixteen hours prior to the test. The rats were dosed orally (1 mL) with compounds suspended in vehicle containing 0.5% methylcellulose and .025% surfactant, or with vehicle alone. One hour later a subplantar injection of 0.1 mL of 1% solution of carrageenan/sterile 0.9% saline was administered and the volume of the injected foot was measured with a displacement plethysmometer connected to a pressure transducer with a digital indicator. Three hours after the injection of the carrageenan, the volume of the foot was again measured.

Male Sprague-Dawley rats [2] = test: Rat Carrageenan-induced Analgesia Test; type: in vivo; conditions: po, 3 h, read-out: ANALGESIA % Inhibition @ 10mg/kg body weight, rats dosed orally, hyperalgesic foot withdrawal, thermal stimulation three hours after carrageenan
COX-1 = COX-1 (Homo sapiens, UniProt P23219); conditions: read-out: COX I ID50 µM
COX-1, sequence (P23219 24-599): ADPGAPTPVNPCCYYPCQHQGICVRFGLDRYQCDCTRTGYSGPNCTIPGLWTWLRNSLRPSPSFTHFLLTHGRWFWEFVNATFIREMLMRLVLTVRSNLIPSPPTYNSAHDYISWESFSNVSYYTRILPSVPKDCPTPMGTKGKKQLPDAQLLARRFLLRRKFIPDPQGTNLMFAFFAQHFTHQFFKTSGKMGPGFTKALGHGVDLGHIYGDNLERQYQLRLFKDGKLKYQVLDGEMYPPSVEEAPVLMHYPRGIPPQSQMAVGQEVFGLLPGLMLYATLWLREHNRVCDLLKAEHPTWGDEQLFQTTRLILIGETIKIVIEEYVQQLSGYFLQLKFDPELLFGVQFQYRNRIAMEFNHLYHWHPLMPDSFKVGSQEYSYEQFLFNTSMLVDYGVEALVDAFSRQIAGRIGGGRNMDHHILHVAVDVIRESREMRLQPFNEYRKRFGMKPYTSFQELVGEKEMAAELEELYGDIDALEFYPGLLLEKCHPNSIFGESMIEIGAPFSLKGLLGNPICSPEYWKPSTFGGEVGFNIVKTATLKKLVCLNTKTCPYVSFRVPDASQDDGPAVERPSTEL

| Compound | inhibition in vivo at 10 mg/kg (Male Sprague-Dawley rats [1]) | inhibition in vivo at 10 mg/kg (Male Sprague-Dawley rats [2]) | IC50 (COX-1) |
| --- | --- | --- | --- |
| CS(=O)(=O)c1ccc(C2=C(c3ccc(F)cc3)CC3(CC3)C2)cc1 [Example 1, 5-(4-Fluorophenyl)-6-[4-(methylsulfonyl)phenyl]spiro[2.4]hept-5-ene] | 32% | 15% | – |
| NS(=O)(=O)c1ccc(C2=C(c3ccc(F)cc3)CC3(CC3)C2)cc1 [Example 2, 4-[6-(4-Fluorophenyl)spiro[2.4]hept-5-en-5-yl]benzenesulfonamide] | 57% | 34% | – |
| CS(=O)(=O)c1ccc(C2=C(c3ccc(F)cc3)CC3(CCC3)C2)cc1 [Example 3, 6-(4-Fluorophenyl)-7-[4-(methylsulfonyl)phenyl]spiro[3.4]oct-6-ene] | 24% | – | – |
| NS(=O)(=O)c1ccc(C2=C(c3ccc(F)cc3)CC3(CCC3)C2)cc1 [Example 4, 4-[7-(4-Fluorophenyl)spiro[3.4]oct-6-en-6-yl]benzenesulfonamide] | 17% | – | – |
| COc1ccc(C2=C(c3ccc(S(C)(=O)=O)cc3)CC3(CC3)C2)cc1Cl [Example 6, 5-(3-Chloro-4-methoxyphenyl)-6-[4-(methylsulfonyl)phenyl)spiro[2.4]hept-5-ene] | 21% | 7% | – |
| COc1ccc(C2=C(c3ccc(S(N)(=O)=O)cc3)CC3(CC3)C2)cc1Cl [Example 7, 4-[6-(3-Chloro-4-methoxyphenyl)spiro[2.4]hept-5-en-5-yl]benzenesulfonamide] | 20% | 18% | – |
| COc1ccc(C2=C(c3ccc(S(C)(=O)=O)cc3)CC3(CC3)C2)cc1F [Example 8, 5-(3-Fluoro-4-methoxyphenyl)-6-[4-(methylsulfonyl)phenyl]spiro[2.4]hept-5-ene] | 15% | 8% | – |
| COc1ccc(C2=C(c3ccc(S(N)(=O)=O)cc3)CC3(CC3)C2)cc1F [Example 9, 4-[6-(3-Fluoro-4-methoxyphenyl)spiro[2.4]hept-5-en-5-yl]benzenesulfonamide] | 15% | 17% | – |
| CS(=O)(=O)c1ccc(C2=C(c3ccc(OC(F)(F)F)cc3)CC3(CC3)C2)cc1 [Example 14, 6-[4-(Methylsulfonyl)phenyl]-5-(4-trifluoromethoxyphenyl)spiro[2.4]hept-5-ene] | 18% | – | – |
| COc1ccc(C2=C(c3ccc(S(C)(=O)=O)cc3)CC3(CC3)C2)cc1Br [Example 16, 5-(3-Bromo-4-methoxyphenyl)-6-[4-(methylsulfonyl)phenyl]spiro[2.4]hept-5-ene] | 6% | – | – |
| CS(=O)(=O)c1ccc(C2=C(c3ccc(C(F)(F)F)cc3)CC3(CC3)C2)cc1 [Example 19, 6-[4-(Methylsulfonyl)phenyl)-5-(4-trifluoromethylphenyl)spiro[2.4]hept-5-ene] | 11% | 9% | – |
| COc1c(Cl)cc(C2=C(c3ccc(S(C)(=O)=O)cc3)CC3(CC3)C2)cc1Cl [Example 20, 5-(3,5-Dichloro-4-methoxyphenyl)-6-[4-(methylsulfonyl)phenyl]spiro[2.4]hept-5-ene] | 24% | 28% | – |
| CS(=O)(=O)c1ccc(C2=C(c3ccc(F)c(Cl)c3)CC3(CC3)C2)cc1 [Example 22, 5-(3-Chloro-4-fluorophenyl)-6-[4-(methylsulfonyl)phenyl]spiro[2.4]hept-5-ene] | 21% | 10% | 6 µM |
| NS(=O)(=O)c1ccc(C2=C(c3ccc(C(F)(F)F)cc3)CC3(CC3)C2)cc1 [Example 25, 4-[6-(4-Trifluoromethylphenyl)spiro[2.4]hept-5-en-5-yl]benzenesulfonamide] | 34% | 22% | – |
| CS(=O)(=O)c1ccc(C2=C(c3ccc(Cl)c(Cl)c3)CC3(CC3)C2)cc1 [Example 27, 5-(3,4-Dichlorophenyl)-6-[4-(methylsulfonyl)phenyl]spiro[2.4]hept-5-ene] | 15% | – | – |
| NS(=O)(=O)c1ccc(C2=C(c3ccc(Cl)c(Cl)c3)CC3(CC3)C2)cc1 [Example 29, 4-[6-(3,4-Dichlorophenyl)spiro[2.4]hept-5-en-5-yl]benzenesulfonamide] | 24% | 29% | – |
